Experimental data reported in publication PMC8066331, “Anticancer Activity of Triazolo-Thiadiazole Derivatives and Inhibition of AKT1 and AKT2 Activation” (Pharmaceutics, 2021).

How the values were obtained:
[1] = tested on: SKOV-3; assay: MTT in vitro antiproliferative assay, SKOV-3; assay type: cell-based; conditions: Homo sapiens, SK-OV-3, SKOV-3, MTT; for IC50: 48 h, concentration causing 50% cell death, read-out: IC50; for GI50 / IC (TGI): 48 h drug exposure; for GI50: read-out: GI50; for IC (TGI): read-out: TGI
Source text: (§1) The in vitro antiproliferative activities of the novel triazolo[3,4-b]thiadiazole derivatives were estimated in ten well-established human cancer cell lines including three ovarian (SKOV-3, UWB 1.289, and UWB 1.289+BRCA1), five colorectal adenocarcinoma (DLD-1, HT-29, LS174T, LoVo, and SW403), and two prostate cancer cell lines (PC-3 and DU-145). All cancer cell lines were obtained from the American Type Culture Collection (ATCC) and cultivated in different culture media according to the instructions. The required growth mediums were supplemented with 10% fetal bovine serum and 1% streptomycin/penicillin. All cancer cell lines were cultured as monolayers and maintained at 37 °C, 5% CO2 in humidified air.
(§2) Stock solutions of all tested compounds were prepared by dissolving the required amount of substances in the DMSO solvent to reach the desired concentration of 15 mM.
(§3) To evaluate the in vitro antiproliferative activity of the triazolo[3,4-b]thiadiazole derivatives, 3-(4,5-dimethylthiazol-2-yl)-2,5-diphenyltetrazolium bromide (MTT) assay was assessed. According to the protocol, cells were firstly seeded into a 96-well plate at a density of 8 × 10^3 cells and grown for 24 h at 37 °C, 5% CO2 in humidified air. Subsequently, cells were treated with the tested compounds in a specific range of drug concentrations (1–100 μΜ). Following 48 h of drug exposure, the culture media were discarded and replaced with 100 μL of fresh medium. Afterwards, 50 μL of dissolved MTT in phosphate-buffered saline (PBS) solution (5 mg/mL) were added in each well and cells were incubated for 3 h at 37 °C, 5% CO2 in humidified air. Incubation time was followed by MTT discard and the addition of 100 μL of DMSO solvent so that the formazan crystals could be dissolved. The absorbance of the converted dye was immediately measured at a wavelength of 540 nm on an ELISA reader (VersaMax Microplate Reader, Orleans, CA, USA).
(§4) The in vitro anticancer effect of a tested compound on cell viability was determined by three dose–response parameters termed GI50, TGI, and IC50. More specifically, the GI50 value indicates the required concentration of the compound that impels 50% cell growth inhibition, the TGI value corresponds to the concentration that induces 100% cell growth inhibition, and the IC50 value is the concentration that causes 50% cell death. The two parameters GI50 and TGI represent the cytostatic activity, whereas IC50 reflects the cytotoxic effect of a drug. To estimate the three parameters, nine absorbance measurements were required including control 24 h (Ct24), control 72 h (Ct72), and the mean of cell survival in all seven drug concentrations (Tt72). The percentage growth inhibition was calculated according to National Cancer Institute’s (NCI) protocol: [(Tt72x) − (Ct24)/(Ct72) − (Ct24)] × 100 for concentrations for which Tt72x > Ct24 and [(Tt72x) − (Ct24)/Ct24] × 100 for concentrations for which Tt72x < Ct24. GI50 was calculated from [(Tt72x) − (Ct24)/(Ct72) − (Ct24)] × 100 = 50, TGI was calculated from [(Tt72x) − (Ct24)/(Ct72) − (Ct24)] × 100 = 0, and IC50 was calculated from [(Tt72x) − (Ct24)/Ct24] × 100 = 50. All the experiments were carried out in triplicate.

[2] = tested on: UWB1.289+BRCA1; assay: MTT in vitro antiproliferative assay, UWB1.289+BRCA1; assay type: cell-based, human; conditions: UWB1.289+BRCA1, MTT; for IC50 / GI50: Homo sapiens; for IC50: 48 h, 50% cell death; for GI50 / TGI: 48 h drug exposure
Source text: as §1, §2, §3, §4

[3] = In vivo acute toxicity; conditions: both sexes, mouse, in vivo, ip; CB17 SCID mice, single i.p. injection, 30 days observation, estimated graphically
Description: (§5) CB17 severe combined immunodeficient (SCID) male and female mice were used for toxicity and antitumor activity studies. Mice were obtained from National Center for Scientific Research (NCSR) Demokritos, Institute of Biology, Athens, Greece. CB17 SCID mice were fed water and an irradiated standard rodent diet ad libitum and housed under specific pathogen-free conditions. For ethical reasons, the weight and tumor volumes of the animals were measured twice a week during the experiment. In case of cachexia, suffering, or increase in the tumor volume up to 2000 mm^3, the animals were sacrificed by cervical disruption.
(§6) For intraperitoneal (i.p.) treatment, stock solutions of the 3 tested compounds were prepared immediately before use. They were suspended in corn oil in the desired concentrations following initial dissolution in 10% dimethyl sulfoxide (DMSO). […] Briefly, the acute toxicity of the tested compounds was assessed for lethality in CB17 SCID mice and determined as previously described. […] Each dosage comprised a group of ten mice, including males and females, that received single i.p. injections.

[4] = tested on: CB17 SCID mice; assay: In vivo acute toxicity; conditions: single i.p. injection, 30 days observation, estimated graphically
Description: as §5, §6

[5] = tested on: PC-3; assay: MTT in vitro antiproliferative assay, PC-3; assay type: cell-based; conditions: Homo sapiens, PC-3, MTT; for IC50: 48 h, 50% cell death, read-out: IC50; for GI50 / IC (TGI): 48 h drug exposure; for GI50: read-out: GI50; for IC (TGI): read-out: TGI
Source text: as §1, §2, §3, §4

[6] = tested on: LS174T; assay: MTT in vitro antiproliferative assay, LS174T; assay type: cell-based, human; conditions: for TGI / GI50: 48 h drug exposure; for IC50 / GI50: Homo sapiens; for IC50: 48 h, 50% cell death
Source text: as §1, §2, §3, §4

[7] = tested on: SW403; assay: MTT in vitro antiproliferative assay, SW403; assay type: cell-based, human; conditions: for TGI: 48 h drug exposure; for IC50 / GI50: Homo sapiens; for IC50: SW-403, 48 h, 50% cell death; for GI50: SW-403, 48 h drug exposure
Source text: as §1, §2, §3, §4

[8] = tested on: LoVo; assay: MTT in vitro antiproliferative assay, LoVo; assay type: cell-based, human; conditions: for TGI / GI50: 48 h drug exposure; for IC50 / GI50: Homo sapiens; for IC50: 48 h, 50% cell death
Source text: as §1, §2, §3, §4

[9] = tested on: UWB 1.289; assay: MTT in vitro antiproliferative assay, UWB 1.289; assay type: cell-based, human; conditions: UWB 1.289, MTT; for IC50 / GI50: Homo sapiens, UWB1289; for IC50: 48 h, 50% cell death; for GI50 / TGI: 48 h drug exposure
Source text: as §1, §2, §3, §4

[10] = tested on: DU-145; assay: MTT in vitro antiproliferative assay, DU-145; assay type: cell-based, human; conditions: DU-145, MTT; for TGI / GI50: 48 h drug exposure; for IC50 / GI50: Homo sapiens; for IC50: 48 h, 50% cell death, read-out: IC50; for GI50: read-out: GI50
Source text: as §1, §2, §3, §4

[11] = tested on: HT-29; assay: MTT in vitro antiproliferative assay, HT-29; assay type: cell-based, human; conditions: HT-29, MTT; for IC50 / GI50: Homo sapiens; for IC50: 48 h, 50% cell death, read-out: IC50; for GI50: read-out: GI50
Source text: as §1, §2, §3, §4

SMILES	IC50 [1]	GI50 [1]	IC (TGI) [1]	IC50 [2]	GI50 [2]	TGI [2]	LD50 at 30 days [3]	LD10 [4]	IC50 [5]	GI50 [5]	IC (TGI) [5]	TGI [6]	IC50 [6]	GI50 [6]	TGI [7]	IC50 [7]	GI50 [7]	TGI [8]	IC50 [8]	GI50 [8]	also measured
COc1cc(Cc2nnc3sc(C=Cc4ccc(F)cc4)nn23)c(S(=O)(=O)N(C)C)cc1OC [KA25]	85 ± 2.1 µM	15 ± 0.5 µM	50 ± 1.5 µM	38 ± 1.1 µM	4 ± 0.5 µM	13 ± 0.8 μΜ	360 mg/kg	200 mg/kg	> 100 µM	14 ± 1 µM	22 ± 0.8 µM	100 ± 0.1 μΜ	> 100 µM	9.3 ± 2 µM	>100 μΜ	> 100 µM	4.8 ± 0.8 µM	13.8 ± 0.52 μΜ	> 100 µM	8 ± 0.76 µM	IC50 [9]: 62 ± 1.2 µM; GI50 [9]: 2 ± 0.5 µM; TGI [9]: 5 ± 0.7 μΜ; TGI [10]: 13.2 ± 0.5 μΜ; IC50 [10]: 27 ± 0.3 µM; GI50 [10]: 12.8 ± 1.3 µM; IC50 [11]: > 100 µM; GI50 ([11]; 48 h drug exposure): 1 ± 0.3 µM
COc1cc(Cc2nnc3sc(C=Cc4ccc(Cl)cc4)nn23)c(S(=O)(=O)N(C)C)cc1OC [KA26]	> 100 µM	20 ± 0.5 µM	> 100 µM	> 100 µM	42 ± 0.5 µM	65 ± 0.7 μΜ	160 mg/kg	100 mg/kg	> 100 µM	42.5 ± 1.5 µM	> 100 µM	>100 μΜ	> 100 µM	8 ± 1.5 µM	>100 μΜ	> 100 µM	11 ± 0.8 µM	>100 μΜ	> 100 µM	15 ± 0.8 µM	IC50 [9]: 70 ± 1.4 µM; GI50 [9]: 29 ± 0.7 µM; TGI [9]: 53 ± 1 μΜ; TGI [10]: 70 ± 1.3 μΜ; IC50 [10]: > 100 µM; GI50 [10]: 7 ± 1 µM; IC50 [11]: > 100 µM; GI50 ([11]; 48 h drug exposure): 2 ± 0.76 µM
COc1cc(Cc2nnc3sc(-c4cc([N+](=O)[O-])ccc4[N+](=O)[O-])nn23)c(S(=O)(=O)N(C)C)cc1OC [KA39]	25 ± 1.4 µM	7 ± 0.2 µM	12 ± 0.8 µM	94 ± 2.3 µM	6 ± 0.5 µM	11 ± 0.7 μΜ	100 mg/kg	70 mg/kg	12 ± 0.1 µM	5 ± 0.15 µM	8 ± 0.1 µM	17 ± 1.3 μΜ	21.5 ± 1.5 µM	12 ± 1.5 µM	7.9 ± 0.7 μΜ	10 ± 0.76 µM	5.2 ± 0.2 µM	5.5 ± 0.1 μΜ	10.5 ± 0.15 µM	2.2 ± 0.2 µM	IC50 [9]: 22 ± 1.2 µM; GI50 [9]: 6 ± 0.2 µM; TGI [9]: 10 ± 0.8 μΜ; TGI [10]: 8 ± 0.4 μΜ; IC50 [10]: 10.3 ± 1.8 µM; GI50 [10]: 5.8 ± 0.2 µM; TGI ([11]; 48 h drug exposure): 15.9 ± 0.55 μΜ; IC50 [11]: 19.5 ± 0.9 µM; GI50 ([11]; 48 h drug exposure): 11.5 ± 0.8 µM
